ChEMBL document CHEMBL3120081, “Imidazopyridazine hepatitis C virus polymerase inhibitors. Structure-activity relationship studies and the discovery of a novel, traceless prodrug mechanism” (J Med Chem, 2014)
Converted amounts (≈) assume the structure as drawn.

What was measured:
Hepatitis C virus [1] = test: Antiviral activity against Hepatitis C virus genotype 1b infected in human HuH7 cells after 48 hrs by luciferase reporter gene assay; assay type: functional, organism-based, Hepacivirus hominis; conditions: Huh-7, 48 h
Hepatitis C virus [2] = test: Antiviral activity against Hepatitis C virus genotype 1a infected in human HuH7 cells after 48 hrs by luciferase reporter gene assay; assay type: functional, organism-based, Hepacivirus hominis; conditions: subtype 1a, Huh-7, 48 h
[3] = Oral bioavailability in beagle dog at 5 mg/kg by LC/MS/MS analysis; assay type: ADME, organism-based, Canis lupus familiaris; conditions: in vivo
[4] = Solubility of the compound in phosphate buffered saline at pH 7.4 after 1 hr by chemiluminescence nitrogen detection assay; assay type: physicochemical
[5] = Oral bioavailability in CD rat at 5 mg/kg by LC/MS/MS analysis; assay type: ADME, organism-based; conditions: in vivo
[6] = Stability in rat microsomes at 0.5 uM by LC/MS/MS analysis; assay type: ADME, Microsome
[7] = Stability of the compound in water at 1 uM at pH 2 up to 60 mins by LC/MS/MS analysis; assay type: physicochemical; conditions: buffer, pH 2, 1 h
[8] = Stability of the compound in water at 1 uM at pH 7 up to 60 mins by LC/MS/MS analysis; assay type: physicochemical; conditions: buffer, pH 7, 1 h
Hepatocyte = test: Stability in rat hepatocytes at 0.5 uM by LC/MS/MS analysis; assay type: ADME, cell-based
[9] = Stability of the compound in blood (unknown origin) at 1 uM up to 60 mins by LC/MS/MS analysis; assay type: ADME, tissue-based; conditions: 1 h
[10] = Cmax in CD rat at 30 mg/kg by LC/MS/MS analysis; assay type: ADME, organism-based; parameters: dose 30 mg/kg; conditions: in vivo
[11] = AUC in CD rat at 30 mg/kg by LC/MS/MS analysis; assay type: ADME, organism-based; parameters: dose 30 mg/kg; conditions: plasma
[12] = AUC in CD rat at 5 mg/kg by LC/MS/MS analysis; assay type: ADME, organism-based; parameters: dose 5 mg/kg; conditions: plasma
[13] = AUC in CD rat at 10 mg/kg by LC/MS/MS analysis; assay type: ADME, organism-based; parameters: dose 10 mg/kg; conditions: plasma
[14] = Cmax in CD rat at 10 mg/kg by LC/MS/MS analysis; assay type: ADME, organism-based; parameters: dose 10 mg/kg; conditions: in vivo
[15] = Oral bioavailability in CD rat at 1 mg/kg by LC/MS/MS analysis; assay type: ADME, organism-based; conditions: in vivo
[16] = Clearance in CD rat at 0.5 mg/kg, iv by LC/MS/MS analysis; assay type: ADME, organism-based; parameters: dose 0.5 mg/kg, route intravenous; conditions: in vivo
[17] = Intrinsic clearance in CD rat microsomes; assay type: ADME, Microsome
[18] = Cmax in CD rat at 5 mg/kg by LC/MS/MS analysis; assay type: ADME, organism-based; parameters: dose 5 mg/kg; conditions: in vivo
[19] = AUC in CD rat at 100 mg/kg by LC/MS/MS analysis; assay type: ADME, organism-based; parameters: dose 100 mg/kg; conditions: plasma
[20] = AUC in CD rat at 1 mg/kg, po by LC/MS/MS analysis; assay type: ADME, organism-based; parameters: dose 1 mg/kg, route oral; conditions: plasma
[21] = Volume of distribution in CD rat at 0.5 mg/kg, iv by LC/MS/MS analysis; assay type: ADME, organism-based; parameters: dose 0.5 mg/kg, route intravenous; conditions: in vivo
[22] = molecular target: Voltage-gated inwardly rectifying potassium channel KCNH2 (Homo sapiens, UniProt Q12809); test: Inhibition of human ERG by patch-clamp technique
Chain of Voltage-gated inwardly rectifying potassium channel KCNH2 (Q12809 whole entry): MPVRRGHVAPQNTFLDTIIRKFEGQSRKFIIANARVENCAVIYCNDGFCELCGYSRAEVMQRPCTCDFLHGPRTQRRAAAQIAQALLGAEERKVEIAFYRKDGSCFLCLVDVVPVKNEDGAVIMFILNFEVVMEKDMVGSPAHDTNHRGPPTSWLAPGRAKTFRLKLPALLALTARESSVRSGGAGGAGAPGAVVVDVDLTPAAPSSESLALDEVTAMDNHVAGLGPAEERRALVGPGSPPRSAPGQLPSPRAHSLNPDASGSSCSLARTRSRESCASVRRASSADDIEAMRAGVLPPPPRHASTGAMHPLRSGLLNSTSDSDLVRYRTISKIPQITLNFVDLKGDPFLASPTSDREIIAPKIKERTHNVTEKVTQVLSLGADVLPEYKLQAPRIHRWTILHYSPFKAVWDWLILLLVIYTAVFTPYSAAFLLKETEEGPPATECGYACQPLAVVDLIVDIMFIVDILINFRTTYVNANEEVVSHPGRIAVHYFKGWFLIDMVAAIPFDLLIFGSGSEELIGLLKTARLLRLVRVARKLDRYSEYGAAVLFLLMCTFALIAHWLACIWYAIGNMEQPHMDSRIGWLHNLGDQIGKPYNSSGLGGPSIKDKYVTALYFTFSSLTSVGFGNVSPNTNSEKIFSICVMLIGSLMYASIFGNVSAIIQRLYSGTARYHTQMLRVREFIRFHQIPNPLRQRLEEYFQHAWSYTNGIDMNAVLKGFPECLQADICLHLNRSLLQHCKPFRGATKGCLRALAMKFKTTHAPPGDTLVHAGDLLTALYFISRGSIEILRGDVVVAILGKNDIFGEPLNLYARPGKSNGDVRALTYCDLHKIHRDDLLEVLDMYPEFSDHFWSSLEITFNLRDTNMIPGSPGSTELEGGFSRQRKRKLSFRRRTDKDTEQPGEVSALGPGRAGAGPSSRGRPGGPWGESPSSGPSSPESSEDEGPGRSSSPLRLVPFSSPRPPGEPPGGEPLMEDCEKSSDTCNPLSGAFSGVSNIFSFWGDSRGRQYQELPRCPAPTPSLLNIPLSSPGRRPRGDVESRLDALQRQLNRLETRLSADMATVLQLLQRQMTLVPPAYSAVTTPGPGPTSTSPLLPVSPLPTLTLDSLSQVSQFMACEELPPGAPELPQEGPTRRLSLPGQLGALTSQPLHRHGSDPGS

[23] = Cmax in CD rat at 100 mg/kg by LC/MS/MS analysis; assay type: ADME, organism-based; parameters: dose 100 mg/kg; conditions: in vivo
[24] = AUC in CD rat at 300 mg/kg by LC/MS/MS analysis; assay type: ADME, organism-based; parameters: dose 300 mg/kg; conditions: plasma
[25] = Cmax in CD rat at 300 mg/kg by LC/MS/MS analysis; assay type: ADME, organism-based; parameters: dose 300 mg/kg; conditions: in vivo
[26] = Half life in CD rat at 0.5 mg/kg, iv by LC/MS/MS analysis; assay type: ADME, organism-based; parameters: dose 0.5 mg/kg, route intravenous; conditions: in vivo
[27] = Solubility of the compound in neutral aqueous media at pH 6.8; assay type: physicochemical

| SMILES | EC50 (Hepatitis C virus [1]) [nM] | EC50 (Hepatitis C virus [2]) [nM] | other results |
| --- | --- | --- | --- |
| COc1ccc(-c2cc(Cn3cc4nc(-c5cccc(F)c5F)nc-4cn3)on2)cc1 | 90 | 300 |  |
| CCCOc1ccc(-c2cc(Cn3cc4nc(-c5cccc(F)c5F)nc-4cn3)on2)c(C(F)(F)F)c1 | 3 | 21 | bioavailability [3]: 12%; solubility kinetic at 1 h [4]: 1.6 µM (≈ 0.825 µg/mL); bioavailability [5]: 33%; Stability [6]: Stable; Stability [7]: Stable; Stability [8]: Stable; Stability (Hepatocyte): Stable; Stability [9]: Stable |
| Fc1ccccc1-c1nc2cnn(Cc3cc(-c4ccc(C(F)(F)F)cc4C(F)(F)F)no3)cc-2n1 | 110 | 3700 |  |
| Fc1cccc(F)c1-c1nc2cnn(Cc3cc(-c4ccc(C(F)(F)F)cc4C(F)(F)F)no3)cc-2n1 | 5000 |  |  |
| FC(F)(F)c1ccc(-c2cc(Cn3cc4nc(-c5cccs5)nc-4cn3)on2)c(C(F)(F)F)c1 | 1750 |  |  |
| CCCOc1ccc(-c2cc(Cn3cc4nc(-c5cccc(F)c5F)nc-4cn3)no2)cc1 | 40 | 110 |  |
| Fc1cccc(-c2nc3cnn(Cc4cn(-c5ccc(C(F)(F)F)cc5C(F)(F)F)cn4)cc-3n2)c1F | 7000 | > 50000 |  |
| Fc1cccc(-c2nc3cnn(CCCc4ccc(C(F)(F)F)cc4C(F)(F)F)cc-3n2)c1F | 52000 | 16000 |  |
| Fc1cccc(-c2nc3cnn(Cc4ccc(-c5ccc(C(F)(F)F)cc5C(F)(F)F)cc4)cc-3n2)c1F | 18 | 120 |  |
| Fc1cccc(-c2nc3cnn(Cc4ccc(-c5ccc(C(F)(F)F)cc5C(F)(F)F)cn4)cc-3n2)c1F | 40 | 300 |  |
| Fc1cccc(-c2nc3cnn(Cc4ccc(-c5ccc(C(F)(F)F)cc5C(F)(F)F)nc4)cc-3n2)c1F | 16 | 160 | Cmax [10]: 2800 ng/mL; AUC [11]: 24000 ng·h/mL; AUC [12]: 8000 ng·h/mL; AUC [13]: 24000 ng·h/mL; Cmax [14]: 2700 ng/mL; bioavailability [15]: 78%; clearance [16]: 9 mL/min/kg; CLint scaled [17]: 22 mL/min/kg; Cmax [18]: 1100 ng/mL; AUC [19]: 69000 ng·h/mL; AUC [20]: 1500 ng·h/mL; Vd [21]: 2.04 L/kg; EC50 [22]: 7940 nM; Cmax [23]: 7600 ng/mL; AUC [24]: 280000 ng·h/mL; Cmax [25]: 27300 ng/mL; half-life [26]: 3.14 h; solubility [27]: 9 µg/mL (≈ 16.8 µM) |
| CCCOc1ccc(-c2ccc(Cn3cc4nc(-c5cccc(F)c5F)nc-4cn3)nn2)c(C(F)(F)F)c1 | 7 | 18 |  |
| CCCOc1ccc(-c2cnc(Cn3cc4nc(-c5cccc(F)c5F)nc-4cn3)cn2)c(C(F)(F)F)c1 | 30 | 60 |  |
| CC(c1cc(-c2ccc(C(F)(F)F)cc2C(F)(F)F)no1)n1cc2nc(-c3cccc(F)c3F)nc-2cn1 (racemic) | 80 | 900 |  |
| Fc1ccccc1-c1nc2ccn(Cc3ccc(-c4ccc(C(F)(F)F)cc4C(F)(F)F)nn3)cc-2n1 [TEGOBUVIR] | 5 |  |  |
